Assay results: article PMC12314051, “Design, antiproliferative potency, and in silico studies of novel 5-methylfuran-3-yl)thio)-3-phenylquinazolin-4(3H)-one based derivatives as potential EGFR inhibitors” (Scientific Reports, 2025)
Read-outs that look alike come from different tables or passages of the source.

How the values were obtained:
[1] = test system: HepG-2 cells; test: MTT cytotoxicity assay, HepG-2; type: cell-based; details: Homo sapiens
Protocol: (§1) Following the published protocol[75]–[77], the cytotoxic effects of the newly synthesized quinazolinones 1–10 were assessed in vitro using the MTT test method on human liver HepG-2, breast MCF-7, colorectal HCT-116 cancer cell lines, and normal diploid cell line WI-38. There were further details in the supplemetary file.
(§2) The cell lines were obtained from Karolinska Center, Department of Oncology and Pathology, Karolinska Institute and Hospital, Stockholm, Sweden, as follows: human liver HepG-2, breast MCF-7, and colorectal HCT-116 cancer cell lines and human diploid cell line WI-38. Exponentially, cells were placed in 10^4 cells/ well for 24 h, and then fresh medium containing different concentrations of the tested sample. two-fold serial dilution of the tested sample was added using a multichannel pipette. Moreover, all cells were cultivated at 37 °C, 5% CO2 and 95% humidity. Also, incubation of control cells occurred at 37 °C. However, after incubation for 24 h different concentrations of the sample (100, 50, 25, 12.5, 6.25, 3.125, and 1.56 µM) were added, and continued the incubation for 48 h, then, add the crystal violet solution of 1% to each well for 0.5 h to examine viable cells. Rinse the wells using water until no stain. After that, add 30% glacial acetic acid to all wells with shaking plates on a Microplate reader (TECAN, Inc.) to measure the absorbance, using a test wavelength of 490 nm. Besides, compare the treated samples with the control cell. The cytotoxicity was estimated by IC50 in (μM), the concentration that inhibits 50% of growth of cancer cell.

[2] = test system: HCT-116 cells; test: MTT cytotoxicity assay, HCT-116; type: cell-based; details: Homo sapiens
Protocol: as §1, §2

[3] = test system: MCF-7 cells; test: MTT cytotoxicity assay, MCF-7; type: cell-based; details: Homo sapiens
Protocol: as §1, §2

[4] = test system: WI-38 cells; test: MTT cytotoxicity assay, normal WI-38; type: cell-based; details: Homo sapiens
Protocol: . […]. Furthermore, the MTT assay was employed to examine the safety profiles of the cytotoxic activity against the normal human diploid cell line WI-38 (Table 1). […]. They could therefore be considered safe chemotherapeutic agents.
as §1, §2

[5] = test system: HepG-2, HCT-116 and MCF-7 cell lines; test: MTT cytotoxicity, all screened cancer cell lines together (SAR summary); type: cell-based, human
Protocol: […]. In addition, replacement of acetyl group in 2 with pyrazoline moiety with free N-1 in 7 or bound to thiazole in 9, yielded weak activity.
as §1, §2

[6] = target: T1, EGFR (Homo sapiens, UniProt P00533); test: In vitro EGFR inhibition assay; type: biochemical; details: for IC50: EGFR, read-out: IC50 (mean ± SD)
T1 construct: purchased Abcam
T1 sequence (P00533 25-1210): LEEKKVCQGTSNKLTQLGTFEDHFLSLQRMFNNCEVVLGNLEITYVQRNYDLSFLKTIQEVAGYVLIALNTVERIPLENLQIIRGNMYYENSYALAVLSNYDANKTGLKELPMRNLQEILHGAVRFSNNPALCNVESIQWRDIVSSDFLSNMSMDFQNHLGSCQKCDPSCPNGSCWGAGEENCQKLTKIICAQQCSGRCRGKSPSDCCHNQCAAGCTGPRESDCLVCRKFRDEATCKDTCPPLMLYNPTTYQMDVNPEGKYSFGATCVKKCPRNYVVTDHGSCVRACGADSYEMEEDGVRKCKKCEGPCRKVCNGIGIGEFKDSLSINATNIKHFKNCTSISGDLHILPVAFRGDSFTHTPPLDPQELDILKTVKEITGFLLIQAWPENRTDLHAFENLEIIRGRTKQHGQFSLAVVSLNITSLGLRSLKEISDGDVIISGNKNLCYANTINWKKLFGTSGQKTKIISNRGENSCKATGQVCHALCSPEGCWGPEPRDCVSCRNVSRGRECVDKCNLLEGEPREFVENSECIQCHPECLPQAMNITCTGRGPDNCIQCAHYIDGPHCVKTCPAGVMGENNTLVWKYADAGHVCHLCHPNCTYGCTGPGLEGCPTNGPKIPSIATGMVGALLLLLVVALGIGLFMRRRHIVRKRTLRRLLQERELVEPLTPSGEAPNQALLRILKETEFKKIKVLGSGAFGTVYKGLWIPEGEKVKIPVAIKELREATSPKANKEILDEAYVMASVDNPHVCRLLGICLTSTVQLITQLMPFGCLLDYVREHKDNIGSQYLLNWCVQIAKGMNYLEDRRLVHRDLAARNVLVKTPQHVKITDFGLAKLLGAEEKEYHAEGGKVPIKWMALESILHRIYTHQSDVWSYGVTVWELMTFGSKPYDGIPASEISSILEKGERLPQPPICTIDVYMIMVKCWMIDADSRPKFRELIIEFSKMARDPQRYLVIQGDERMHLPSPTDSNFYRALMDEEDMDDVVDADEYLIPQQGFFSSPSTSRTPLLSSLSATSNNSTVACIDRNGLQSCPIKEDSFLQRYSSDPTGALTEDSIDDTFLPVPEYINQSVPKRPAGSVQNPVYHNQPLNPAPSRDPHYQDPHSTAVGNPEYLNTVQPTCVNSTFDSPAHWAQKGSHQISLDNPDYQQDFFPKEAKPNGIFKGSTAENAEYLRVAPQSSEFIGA

[7] = target: T2, VEGFR-2 (Homo sapiens, UniProt P35968); test: In vitro VEGFR-2 inhibition assay (ELISA kit); type: biochemical; details: read-out: IC50 (mean ± SD)
T2 construct: purchased Ray Biotech
T2 sequence (P35968 20-1356): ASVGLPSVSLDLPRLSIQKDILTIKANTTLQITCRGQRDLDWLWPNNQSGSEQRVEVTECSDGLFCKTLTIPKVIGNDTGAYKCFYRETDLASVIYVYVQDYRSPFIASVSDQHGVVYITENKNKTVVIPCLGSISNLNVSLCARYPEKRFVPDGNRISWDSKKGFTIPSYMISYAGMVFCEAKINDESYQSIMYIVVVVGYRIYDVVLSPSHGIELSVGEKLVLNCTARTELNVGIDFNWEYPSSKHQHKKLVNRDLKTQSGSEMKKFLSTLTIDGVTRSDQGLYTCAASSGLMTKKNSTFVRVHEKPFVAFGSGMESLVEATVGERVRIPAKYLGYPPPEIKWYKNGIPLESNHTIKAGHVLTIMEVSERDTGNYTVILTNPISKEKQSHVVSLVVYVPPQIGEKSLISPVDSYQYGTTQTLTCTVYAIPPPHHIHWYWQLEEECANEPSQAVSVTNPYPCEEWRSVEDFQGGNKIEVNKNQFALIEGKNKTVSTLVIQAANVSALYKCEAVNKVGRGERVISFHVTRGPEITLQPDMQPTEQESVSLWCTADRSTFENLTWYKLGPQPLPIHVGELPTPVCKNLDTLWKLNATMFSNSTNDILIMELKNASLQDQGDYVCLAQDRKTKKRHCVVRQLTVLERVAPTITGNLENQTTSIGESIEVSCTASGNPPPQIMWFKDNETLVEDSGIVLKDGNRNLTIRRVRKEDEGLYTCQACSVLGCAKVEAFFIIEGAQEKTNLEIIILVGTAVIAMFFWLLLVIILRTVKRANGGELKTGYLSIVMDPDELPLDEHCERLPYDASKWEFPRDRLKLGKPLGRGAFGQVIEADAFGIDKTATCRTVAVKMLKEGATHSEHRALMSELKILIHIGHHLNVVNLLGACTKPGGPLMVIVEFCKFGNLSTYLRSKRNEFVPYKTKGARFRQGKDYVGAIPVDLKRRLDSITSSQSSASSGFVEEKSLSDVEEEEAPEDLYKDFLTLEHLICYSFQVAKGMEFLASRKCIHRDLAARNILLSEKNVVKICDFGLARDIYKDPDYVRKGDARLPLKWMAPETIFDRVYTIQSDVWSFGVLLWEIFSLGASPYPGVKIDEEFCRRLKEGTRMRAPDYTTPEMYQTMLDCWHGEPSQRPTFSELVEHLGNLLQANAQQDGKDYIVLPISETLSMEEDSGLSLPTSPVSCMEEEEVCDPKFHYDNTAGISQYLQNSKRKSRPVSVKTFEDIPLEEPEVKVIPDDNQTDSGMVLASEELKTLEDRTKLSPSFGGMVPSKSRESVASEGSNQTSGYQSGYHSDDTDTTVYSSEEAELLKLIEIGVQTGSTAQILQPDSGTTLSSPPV
Protocol: Quinazolinone-based targets 1, 6b, 8a, and 10 were chosen for further evaluation of their in vitro inhibitory activity against EGFR and VEGFR-2 because of their exceptional cytotoxic outcomes, with the goal of clarifying their mode of action. […]. VEGFR-2 assay: the effect of the most promising cytotoxic compounds 1, 6b, 8a, and 10 was evaluated for their in vitro inhibitory activity against Human VEGFR-2 using ELISA kit according to manufacturer's instructions (Ray Biotech). This assay employs an antibody specific for human VEGFR-2 coated on a 96-well plate. Samples and standards were added to the wells and incubated over night at 4 °C with gentle shaking. The wells were washed and biotinylated antibody was added followed by incubation for one hour at room temperature. After washing away unbound biotinylated antibody, HRP conjugated streptavidin was pipetted to the wells and
incubated at room temperature for 45 min. The wells were then washed; TMB substrate solution was added and incubated for 30 min. The color developed was in proportion to the amount of VEGFR-2 bound. The Stop Solution was added and the intensity of the color was measured at 450 nm. Percent inhibition was calculated by the comparison of compounds treated to control incubations. […]

[8] = HepG2, HepG-2, MTT assay, read-out: IC50 (mean ± SD)
[9] = HCT-116, MTT assay, read-out: IC50 (mean ± SD)
[10] = MCF7, MCF-7, MTT assay, read-out: IC50 (mean ± SD)
[11] = normal WI-38, MTT assay, read-out: IC50 (mean ± SD)
[12] = HepG-2, HCT-116 and MCF-7 cell lines

Compound	IC50 [1, 8] [µM]	IC50 [2, 9] [µM]	IC50 [3, 10] [µM]	IC50 [4, 11] [µM]	cytotoxic activity in words (SAR study) [5]	IC50 [6] [µM]	IC50 [7] [µM]	cytotoxic activity in words (SAR study) [5, 12]	selectivity EGFR over VEGFR-2 ([6]; EGFR versus VEGFR-2)	IC50 ([1]; HepG2, read-out: IC50 (mean ± SD)) [µM]	IC50 ([2]; HCT-116, read-out: IC50 (mean ± SD)) [µM]	IC50 ([3]; MCF7, read-out: IC50 (mean ± SD)) [µM]	IC50 ([4]; WI-38, read-out: IC50 (mean ± SD)) [µM]
O=C(CCl)Sc1nc2ccccc2c(=O)n1-c1ccccc1 [Compound 1, S-(4-Oxo-3-phenyl-3,4-dihydroquinazolin-2-yl) 2-chloroethanethioate]	13.2 ± 1.1	19.6 ± 1.4	10.6 ± 0.9	75.4 ± 3.8	Moderate activity	25.5 ± 1.2	70.2 ± 2.55						
CC(=O)c1c(Sc2nc3ccccc3c(=O)n2-c2ccccc2)coc1C [Compound 2, 2-[(4-Acetyl-5-methylfuran-3-yl)thio]-3-phenylquinazolin-4(3H)-one]	47.8 ± 2.8	78.7 ± 3.7	54.9 ± 3.2	36.9 ± 2.4	Weak activity								
Cc1occ(Sc2nc3ccccc3c(=O)n2-c2ccccc2)c1C(=O)C=Cc1ccc(Cl)cc1 [Compound 3a, 2-{{{4-[3-(4-Chlorophenyl)acryloyl]-5-methylfuran-3-yl}thio}}-3-phenylquinazolin-4(3H)-one]	21.8 ± 1.6	34.1 ± 2.1	37.9 ± 2.2	68.7 ± 3.6									
Cc1occ(Sc2nc3ccccc3c(=O)n2-c2ccccc2)c1C(=O)C=Cc1ccc(F)cc1 [Compound 3b, 2-{{{4-[3-(4-Fluorophenyl)acryloyl]-5-methylfuran-3-yl}thio}}-3-phenylquinazolin-4(3H)-one]	56 ± 3.2	83.3 ± 4.1	71.1 ± 3.8	28.8 ± 1.9									
COc1ccc(C=CC(=O)c2c(Sc3nc4ccccc4c(=O)n3-c3ccccc3)coc2C)cc1 [Compound 3c, 2-{{{4-[3-(4-Methoxyphenyl)acryloyl]-5-methylfuran-3-yl}thio}}-3-phenylquinazolin-4(3H)-one]		> 100	23.4 ± 1.6	53.2 ± 2.9									
Cc1occ(Sc2nc3ccccc3c(=O)n2-c2ccccc2)c1C(=O)C=Cc1ccco1 [Compound 3d, 2-{{{4-[3-(Furan-2-yl)acryloyl]-5-methylfuran-3-yl}thio}}-3-phenylquinazolin-4(3H)-one]	18.9 ± 1.4	25.9 ± 1.7	16 ± 1.3	> 100									
CCOC(=O)C1C(=O)C=C(c2c(Sc3nc4ccccc4c(=O)n3-c3ccccc3)coc2C)CC1c1ccc(F)cc1 (stereo not shown) [Compound 4, Ethyl 4′-fluoro-5-{2-methyl-4-[(4-oxo-3-phenyl-3,4-dihydroquinazolin-2-yl)thio]furan-3-yl}-3-oxo-1,2,3,6-tetrahydro-[1,1′-biphenyl]-2-carboxylate]	64.9 ± 3.5	87.8 ± 4.3	62.1 ± 3.5	44.9 ± 2.7				Weak activity					
COc1ccc(-c2cc(-c3c(Sc4nc5ccccc5c(=O)n4-c4ccccc4)coc3C)ncc2C#N)cc1 [Compound 5, 4-(4-Methoxyphenyl)-6-{2-methyl-4-[(4-oxo-3-phenyl-3,4-dihydroquinazolin-2-yl)thio]furan-3-yl}nicotinonitrile]	38.5 ± 2.3	66.3 ± 3.5	50 ± 2.8	17.8 ± 1.4				Weak activity					
Cc1occ(Sc2nc3ccccc3c(=O)n2-c2ccccc2)c1C1CC(c2ccc(F)cc2)Nc2ccccc2N1 (stereo not shown) [Compound 6a, 2-{{{4-[4-(4-Fluorophenyl)-2,3,4,5-tetrahydro-1H-benzo[b][1,4]diazepin-2-yl]-5-methylfuran-3-yl}thio}}-3-phenylquinazolin-4(3H)-one]	35.8 ± 2.1	52.5 ± 3.1	33.6 ± 2	85.1 ± 4.2				Weak activity					
Cc1occ(Sc2nc3ccccc3c(=O)n2-c2ccccc2)c1C1=NNC(c2ccc(Cl)cc2)C1 (stereo not shown) [Compound 7, 2-{{{4-[5-(4-Chlorophenyl)-4,5-dihydro-1H-pyrazol-3-yl]-5-methylfuran-3-yl}thio}}-3-phenylquinazolin-4(3H)-one]	27.9 ± 1.9	48.9 ± 2.6	45.8 ± 2.5	> 100				weak activity					
Cc1occ(Sc2nc3ccccc3c(=O)n2-c2ccccc2)c1C1=NN(C(N)=S)C(c2ccc(Cl)cc2)C1 (stereo not shown) [Compound 8a, 5-(4-Chlorophenyl)-3-{2-methyl-4-[(4-oxo-3-phenyl-3,4-dihydroquinazolin-2-yl)thio]furan-3-yl}-4,5-dihydro-1H-pyrazole-1-carbothioamide]	9.68 ± 0.8	57.1 ± 3.3	8.29 ± 0.6	63.2 ± 3.3		8.53 ± 0.25	46.2 ± 1.2	Excellent activity					
Cc1occ(Sc2nc3ccccc3c(=O)n2-c2ccccc2)c1C1=NN(C(N)=S)C(c2ccc(F)cc2)C1 (stereo not shown) [Compound 8b]	81.5 ± 4.2	93.4 ± 4.7	76.1 ± 3.9	26.9 ± 1.8				Weak activity					
Cc1occ(Sc2nc3ccccc3c(=O)n2-c2ccccc2)c1C1=NN(c2nc(Cl)cs2)C(c2ccc(Cl)cc2)C1 (stereo not shown) [Compound 9, 2-{{{4-[5-(4-Chlorophenyl)-1-(4-chlorothiazol-2-yl)-4,5-dihydro-1H-pyrazol-3-yl]-5-methylfuran-3-yl}thio}}-3-phenylquinazolin-4(3H)-one]	44 ± 2.5	74.7 ± 3.9	58 ± 3.4	39.8 ± 2.4				weak activity					
Cc1occ(Sc2nc3ccccc3c(=O)n2-c2ccccc2)c1C1=NN(C(=S)N=Cc2ccc(C=O)s2)C(c2ccc(F)cc2)C1 (stereo not shown) [Compound 10, 5-(4-Fluorophenyl)-N-[(5-formylthiophen-2-yl)methylene]-3-(2-methyl-4-{[4-oxo-3-phenyl-3,4-dihydroquinazolin-2-yl)thio]furan-3-yl}-4,5-dihydro-1H-pyrazole-1-carbothioamide]	8.71 ± 0.7	11.6 ± 0.9	6.49 ± 0.4	35.2 ± 2.2		0.51 ± 0.04	39.4 ± 1.35	Excellent activity	substantially more selective for EGFR than VEGFR-2				
C#Cc1cccc(Nc2ncnc3cc(OCCOC)c(OCCOC)cc23)c1 [Erlotinib, reference compound]										4.5 ± 0.2	5.23 ± 0.3	4.17 ± 0.2	6.72 ± 0.5
